Structures are written as SMILES.

Assay [1] addresses T1, Leucine-Rich Repeat Kinase 2 (LRRK2) WDR40 domain (Homo sapiens, UniProt Q5S007).
T1 construct: WDR40 domain
T1 sequence (Q5S007 2142-2527 limits assumed): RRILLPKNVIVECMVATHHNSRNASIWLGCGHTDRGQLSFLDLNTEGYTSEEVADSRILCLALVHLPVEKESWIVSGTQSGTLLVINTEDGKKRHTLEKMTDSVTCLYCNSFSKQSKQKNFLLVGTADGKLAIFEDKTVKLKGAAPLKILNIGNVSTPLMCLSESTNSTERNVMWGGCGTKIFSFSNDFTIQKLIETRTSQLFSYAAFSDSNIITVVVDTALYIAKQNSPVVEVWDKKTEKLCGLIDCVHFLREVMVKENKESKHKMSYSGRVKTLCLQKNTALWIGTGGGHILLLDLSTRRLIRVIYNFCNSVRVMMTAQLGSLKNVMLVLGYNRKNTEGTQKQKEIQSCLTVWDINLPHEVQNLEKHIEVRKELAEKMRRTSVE
As to the kind of experiment: SPR; weak DSF stabilization (ΔTm […] °C). In kind it is binding. For orientation: Surface plasmon resonance follows binding to a sensor surface in real time, without labels.

Assay [2] has as its target T1, Leucine-Rich Repeat Kinase 2 (LRRK2) WDR40 domain. As to the kind of experiment: SPR (not confirmed by orthogonal assays). In kind it is binding.

For the compound `CSc1ccc(CNc2cccc(-n3cnnn3)c2)cc1` [D, N-[4-(methylsulfanyl)phenyl]methyl-3-(1 H-1,2,3,4-tetrazol-1-yl)aniline], the Kd (as a rule, the constant that tells how readily two partners part at equilibrium) in assay [1] was found to be 100 µM.
Consider `Cn1nnc(-c2ccccc2)c1CNc1cccc(-n2cnnn2)c1` [A, N-[(1-methyl-4-phenyl-1 H-1,2,3-triazol-5-yl)methyl]-3-(1 H-1,2,3,4-tetrazol-1-yl)-aniline], for which, in assay [2], the Kd was 59 µM.
Same read-out and setting: the figure for `O=c1[nH]c2ccc(CNc3cccc(-n4cnnn4)c3)cc2[nH]1` [B, compound B] is 35 µM.

(Values after article PMC12465524, “Cache: Utilizing ultra-large library screening in Rosetta to identify novel binders of the WD-repeat domain of Leucine-Rich Repeat Kinase 2” (Journal of Cheminformatics, 2025).)
